Values joined by “and” are separate entries in the source; they are usually repeats but may differ in a detail not shown here. Equal values may be shown once. Marks after values point to notes of the source that are not given here.
What was measured:
[1] = test system: Swiss albino mice; test: Hot plate test, involvement of adrenergic receptors; type: in vivo; details: single animals
Experimental: The analgesic effects of the isolated compounds were measured using the hot plate method at a monitored temperature of 55 ± 0.2°C. The Swiss albino mice were positioned on the heated surface of the hot plate, and the period from placement to the onset of licking their hind paws or starting jump movements was noted as the response latency (thermal reactions). The test compounds were injected intraperitoneally. […] The animal models were checked for thermal reactions at various time intervals after sample administration.
The outcomes of the positive control and tested compounds were compared in animals pretreated with yohimbine. […] Additionally, clonidine at a dose of 3 μg/kg was intravenously administered. The animals were then subjected to the hot plate method, as reported before.

[2] = target: T1, 5-LOX (Glycine max, UniProt P08170); test: Lipoxygenase (5-LOX) inhibitory activity; type: biochemical
T1 sequence (P08170 1-839): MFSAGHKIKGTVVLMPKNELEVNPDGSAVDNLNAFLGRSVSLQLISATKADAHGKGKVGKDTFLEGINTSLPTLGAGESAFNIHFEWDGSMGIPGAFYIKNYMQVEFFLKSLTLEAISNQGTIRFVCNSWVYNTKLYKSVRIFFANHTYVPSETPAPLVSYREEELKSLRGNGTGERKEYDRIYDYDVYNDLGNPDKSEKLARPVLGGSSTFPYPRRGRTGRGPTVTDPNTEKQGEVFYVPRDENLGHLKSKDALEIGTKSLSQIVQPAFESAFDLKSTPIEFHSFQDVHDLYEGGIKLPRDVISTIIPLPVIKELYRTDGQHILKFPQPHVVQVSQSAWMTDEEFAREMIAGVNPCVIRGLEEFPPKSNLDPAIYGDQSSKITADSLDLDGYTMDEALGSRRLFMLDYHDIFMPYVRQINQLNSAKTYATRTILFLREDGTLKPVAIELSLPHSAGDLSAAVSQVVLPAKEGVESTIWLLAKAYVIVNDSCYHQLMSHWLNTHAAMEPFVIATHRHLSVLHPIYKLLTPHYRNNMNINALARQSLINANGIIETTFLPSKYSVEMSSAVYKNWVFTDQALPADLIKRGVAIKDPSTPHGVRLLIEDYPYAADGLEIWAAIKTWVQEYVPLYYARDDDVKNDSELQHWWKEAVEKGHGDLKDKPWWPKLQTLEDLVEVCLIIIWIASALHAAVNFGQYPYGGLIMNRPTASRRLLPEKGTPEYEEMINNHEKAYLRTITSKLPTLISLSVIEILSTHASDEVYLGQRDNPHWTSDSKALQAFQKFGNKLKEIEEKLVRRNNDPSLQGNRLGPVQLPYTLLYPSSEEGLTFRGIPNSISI
Experimental: The enzyme solution with a concentration of 10,000 U/ml was prepared. […] A solution (80 mM) of linoleic acid (substrate) was made. Likewise, a 50 mM phosphate buffer solution with a pH of 6.3 was prepared. The substrate, enzyme, and buffer were combined in equal proportions, each in a 2 ml volume. […] The inhibition percentage was determined by comparing the absorbance of the test samples with that of the positive control.

[3] = test system: mice; test: Carrageenan-induced paw edema; type: in vivo; details: for % edema volume inhibition (mean): aspirin 10 mg/kg; for Paw edema percent inhibition, individual values / Paw edema, individual values: single animals
Experimental: The animals under study were divided into different groups. Prior to the experiment, the animals had only access to water. […] Additionally, the isolated compounds being tested were given 30 min before injecting 0.05 ml of 1% carrageenan into the sub-plantar region of the paw. To measure the volume changes in the paw, a digital plethysmometer was employed. Readings were taken before and after the carrageenan injection at hourly intervals over a total period of 5 h.

[4] = test system: Swiss albino mice; test: Acetic acid-induced writhing test; type: in vivo; details: for % analgesic activity (writhing inhibition) / Mean writhes: dose 10 mg/kg, oral; for Mean writhes: writhes counted 5-30 min after acetic acid, 10 mg/kg
Experimental: An anti-nociceptive assessment was performed on Swiss albino mice of both sexes, sourced from the National Institute of Health, Islamabad, Pakistan. […] Mice of either sex were divided into different groups, with five mice in each group. The test samples were carefully administered orally, with doses of 250, 500, 1000, and 2000 mg/kg.
I. rugosus was evaluated for its analgesic potential through an acetic acid-induced writhing test. Oral administration of the test samples was carried out using specified doses. After 30 min of interval, 10 ml/kg of acetic acid (0.6%) was injected into the mice. Group I served as the control and received 0.5% Tween-80 (3 ml/kg), group II received diclofenac sodium (10 mg/kg), and groups III and IV received test compounds. The count of writhes was recorded between 5 and 30 min, following the i/p injection of acetic acid ([Franzotti et al., 2000]).

Clc1cccc(Cl)c1N=C1NCCN1 [Clonidine, reference compound]
Hot plate analysis (adrenergic), individual values ([1]; 30 Minutes): 9.56 and 8.88 and 10.88
Hot plate analysis (adrenergic), individual values ([1]; 45 Minutes): 10.6 and 9.32 and 10.99
Hot plate analysis (adrenergic), individual values ([1]; 15 minutes): 9.26 and 10.12 and 10.98
Hot plate analysis (adrenergic), individual values ([1]; 60 minutes): 8.2 and 10.01 and 7.59
Hot plate analysis (adrenergic), individual values ([1]; 90 minutes): 8.4 and 10.26 and 9.3

CC(c1cc2ccccc2s1)N(O)C(N)=O (stereo not shown) [Zileuton, reference compound]
inhibition at 62.5 µg/mL ([2]; read-out: % inhibition 5-LOX (mean ± SEM), 62.5 µg/ml): 79.8 ± 0.37%
inhibition at 250 µg/mL ([2]; read-out: % inhibition 5-LOX (mean ± SEM), 250 µg/ml): 88.98 ± 0.85%
inhibition at 500 µg/mL ([2]; read-out: % inhibition 5-LOX (mean ± SEM), 500 µg/ml): 92.22 ± 0.11%
inhibition at 1000 µg/mL ([2]; read-out: % inhibition 5-LOX (mean ± SEM), 1000 µg/ml): 95.2 ± 0.15%

CC(=O)Oc1ccccc1C(=O)O [Aspirin, aspirin, reference compound]
% edema volume inhibition (mean) ([3]; 1st hour after carrageenan): 51.772%
% edema volume inhibition (mean) ([3]; 1st hour after carrageenan, listed as aspirin): 51.77 ± 0.10%
% edema volume inhibition (mean) ([3]; 2nd hour after carrageenan): 56.106%
% edema volume inhibition (mean) ([3]; 3rd hour after carrageenan): 57.334%
% edema volume inhibition (mean) ([3]; 4th hour after carrageenan): 60.956%
% edema volume inhibition (mean) ([3]; 5th hour after carrageenan): 57.694%
% edema volume inhibition (mean) ([3]; 5th hour after carrageenan, listed as aspirin): 57.77 ± 0.40%
Paw edema percent inhibition, individual values ([3]; hour 1): 52.34% and 51.04% and 52.35% and 51.83% and 51.3%
Paw edema, individual values ([3]; hour 1): 0.362 and 0.375 and 0.365 and 0.369 and 0.373
Paw edema percent inhibition, individual values ([3]; hour 2): 59.13% and 52.65% and 58.06% and 56.7% and 53.99%
Paw edema, individual values ([3]; hour 2): 0.302 and 0.349 and 0.31 and 0.32 and 0.34
Paw edema percent inhibition, individual values ([3]; hour 3): 59.52% and 56.85% and 58.59% and 57.12% and 54.59%
Paw edema, individual values ([3]; hour 3): 0.304 and 0.322 and 0.311 and 0.341
Paw edema percent inhibition, individual values ([3]; hour 4): 63.3% and 60.42% and 61.07% and 60.88% and 59.11%
Paw edema, individual values ([3]; hour 4): 0.275 and 0.301 and 0.297 and 0.312
Paw edema percent inhibition, individual values ([3]; hour 5): 59.25% and 55.95% and 53.49% and 59.23% and 60.55%
Paw edema, individual values ([3]; hour 5): 0.298 and 0.322 and 0.34 and 0.289

O=C(O)Cc1ccccc1Nc1c(Cl)cccc1Cl [Positive control, diclofenac sodium, reference compound]
Writhes, individual values ([4]; 10mg, single animals): 16.1 and 17.8 and 15.6
% analgesic activity (writhing inhibition) [4]: 73.02^*** %
% analgesic activity (writhing inhibition) ([4]; listed as positive control): 73.02%
Mean writhes [4]: 16.5 ± 0.76
Mean writhes ([4]; listed as Positive Control): 16.5
